According to PubChem BioAssay (NCI):
Where “and” joins values, the source holds several entries; their conditions need not be identical. Equal values may be shown once.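 Exposure lasted 48 hours, with cells grown in 96-well plates and compounds tested at five concentrations. Here, GI50 denotes the concentration required for 50% inhibition of growth. At the TGI there is no net growth.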

Columns and labels:
Assay in all cases: growth of human tumour cells (NCI), 48 h
BT-549 breast = test system: BT-549 breast
MDA-MB-231 breast = test system: MDA-MB-231 breast
MDA-MB-435 = test system: MDA-MB-435
MCF7 breast = test system: MCF7 breast
T-47D breast = test system: T-47D breast

Row | SMILES | TGI (BT-549 breast) | TGI (MDA-MB-231 breast) | TGI (MDA-MB-435) | TGI (MCF7 breast) | GI50 (BT-549 breast) | GI50 (MDA-MB-231 breast) | GI50 (T-47D breast) | TGI (T-47D breast) | GI50 (MCF7 breast) | GI50 (MDA-MB-435)
1 | Cc1cc(Cl)ccc1OCC(=O)Oc1c(Cl)c(Cl)c(Cl)c(Cl)c1Cl | > 100 µM | 38.1 µM | 68.9 µM | 96.7 µM | – | – | – | – | – | –
2 | COc1ccc(/C=C2/CCOC2=O)cc1 | > 100 µM | > 100 µM | – | > 100 µM | > 100 µM | > 100 µM | > 100 µM | > 100 µM | > 100 µM | –
3 | CC(C)(C)OC(=O)N(CCCn1c2c(c3ccccc3c1=O)C(=O)c1ccccc1-2)CCN(CCCn1c2c(c3ccccc3c1=O)C(=O)c1ccccc1-2)C(=O)OC(C)(C)C | > 50 µM | > 50 µM | > 50 µM | > 50 µM | > 50 µM | 15.3 µM | > 50 µM | > 50 µM | 21.3 µM | > 50 µM
4 | C[C@]1(O)CC(=O)[C@]2(O)C3=C(C=C[C@]2(O)C1)C(=O)c1c(O)cccc1C3=O | 9.44 µM | 6.6 µM | 3.44 µM | – | 2.62 µM | 2.25 µM | 1.85 µM | 4.57 µM | – | 1.85 µM
5 | COc1ccc(-c2ccc(=O)oc2-c2cc(OC)c(OC)c(OC)c2)cc1O | > 100 µM | > 100 µM | – | > 100 µM | 0.0919 µM | 0.0613 µM | > 100 µM | > 100 µM | < 0.01 µM | –
6 | S=C(S)NCCCn1ccnc1 | > 100 µM | > 100 µM | > 100 µM | > 100 µM | – | – | – | > 100 µM | – | –
7 | COc1cc([N+](=O)[O-])c(S(=O)(=O)O)cc1-n1nc(-c2ccccc2)n[n+]1-c1cc(S(=O)(=O)[O-])c([N+](=O)[O-])cc1OC | – | > 100 µM | > 100 µM | > 100 µM | – | – | – | > 100 µM | – | –
8 | CCCCCCCCCCCCCCCC[N+](C)(C)C | 0.873 µM | 0.405 µM and 3.55 µM | 0.761 µM | 1.44 µM and 5.2 µM | 0.267 µM | 0.169 µM and 1.38 µM | 0.272 µM and 2.56 µM | 1.2 µM and 9.59 µM | 0.313 µM and 1.86 µM | 0.241 µM
9 | COc1cc(C)c(N(C)C(=O)CN(C)C)cc1Nc1nc(Nc2cccc(F)c2C(N)=O)c2cc[nH]c2n1 | > 25 µM | > 25 µM | > 25 µM | > 25 µM | 18.4 µM | > 25 µM | > 25 µM | > 25 µM | 2.7 µM | > 25 µM
10 | O=c1cc(-c2ccccc2)oc2cc(OCc3cn(Cc4ccc(F)cc4)nn3)cc(O)c12 | > 100 µM | > 100 µM | – | – | 7.98 µM | 16.6 µM | – | – | – | –
11 | COc1ccc(-n2nc(C)c3c(Nc4ccc(NC(=O)Nc5cc(C(F)(F)F)ccc5F)cc4)ncnc32)cc1 | 7.67 µM | 3.55 µM | 6.51 µM | 14.7 µM | 2.49 µM | 1.61 µM | 2.57 µM | 8.72 µM | 2.69 µM | 2.44 µM
12 | O=C(O)C1(C(=O)O)CCN(S(=O)(=O)c2ccccc2)CC1 | > 100 µM | > 100 µM | > 100 µM | > 100 µM | – | – | – | > 100 µM | – | –
13 | O=c1c2ccccc2c(C=NCCNCCO)c2oc3ccccc3n12 | – | 24.4 µM | 24.7 µM | – | – | 11.5 µM | 4.12 µM | 17.9 µM | – | 12.3 µM
14 | Cn1c(-c2c(N)n(Cc3ccc(Cl)cc3)c3nc(C#N)c(C#N)nc23)nc2ccccc21 | 15.6 µM | 9.41 µM | > 50 µM | > 50 µM | 6.44 µM | 1.69 µM | 1.83 µM | 14.5 µM | 3.94 µM | 7.63 µM
15 | CN1CCN(c2ccc(NC3=C(Cl)C(=O)c4ncccc4C3=O)cc2C(F)(F)F)CC1 | 26.3 µM | 5.02 µM | 3.3 µM | 4.23 µM | 13 µM | 1.69 µM | 1.33 µM | 5.31 µM | 1.7 µM | 1.79 µM
16 | Cc1cc2cc(Oc3ccnc(Nc4cccc(CS(=O)(=O)NCCN(C)C)c4)n3)ccc2[nH]1 | 18.1 µM | 17.2 µM | 18.4 µM | 18.4 µM | 5.03 µM | 4.61 µM | 4.93 µM | 22.7 µM | 4.03 µM | 5.37 µM
17 | CC(=O)c1ccc(NCn2nc(-c3ccccc3O)oc2=S)cc1 | > 100 µM | > 100 µM | > 100 µM | > 100 µM | 56.2 µM | 37.6 µM | 85.9 µM | > 100 µM | > 100 µM | > 100 µM
18 | O=C(/C=C/c1ccccc1)c1ccc(O)c(CN2CCN(c3cc4c(cc3F)c(=O)c(C(=O)O)cn4C3CC3)CC2)c1 | 26.3 µM | 7.65 µM | 25.7 µM | > 100 µM | 0.989 µM | 1.94 µM | 1.77 µM | > 100 µM | 0.688 µM | 1.5 µM

Row | SMILES | TGI (BT-549 breast) | TGI (MDA-MB-231 breast) | TGI (MDA-MB-435) | TGI (MCF7 breast) | GI50 (BT-549 breast) | GI50 (MDA-MB-231 breast) | GI50 (T-47D breast) | TGI (T-47D breast) | GI50 (MCF7 breast) | GI50 (MDA-MB-435)
19 | Cc1cc(C)c(S(=O)(=O)Oc2ccccc2[N+](=O)[O-])c(C)c1 | > 100 µM | > 100 µM | 0.879 µM | > 100 µM | 3.19 µM | 3.7 µM | 4.79 µM | > 100 µM | 2.81 µM | 0.239 µM
20 | CCOc1ccc2c(-c3ccnc(Nc4cccc(C(F)(F)F)c4)n3)cnn2n1 | > 25 µM | > 25 µM | > 25 µM | > 12.2 µM | > 23.8 µM | 14.7 µM | 1.4 µM | > 25 µM | 0.979 µM | 9.93 µM
21 | S=C1SC2(CCCCCC2)NC2=C1CCCCC2 | – | > 100 µM | > 100 µM | 65 µM | – | – | – | > 100 µM | – | –
22 | C=C(C)[C@@H]1CC[C@]2(c3ncc(C)o3)CC[C@]3(C)[C@H](CC[C@@H]4[C@@](C)(CCC#N)[C@H](C(=C)C)CC[C@]43C)[C@@H]12 | 29.2 µM | 6.41 µM | 18 µM | 10.5 µM | 14.4 µM | 2.53 µM | 3.19 µM | 15 µM | 2.87 µM | 4.87 µM
23 | CCCCn1c(=O)c(/C=C/C(=O)/C=C/c2ccc(O)c(OC)c2)cc2ccc(Cl)cc21 | 4.25 µM | 7.73 µM | 4.17 µM | 10.8 µM | 1.76 µM | 2.51 µM | 1.85 µM | 6.28 µM | 1.88 µM | 1.77 µM
24 | c1ccc(CN2CCC3(CC2)ONC2=NCCN23)cc1 | > 100 µM | > 100 µM | > 100 µM | > 100 µM | > 100 µM | > 100 µM | > 100 µM | > 100 µM | 71.3 µM | 91.5 µM
25 | COc1ccc(CNCCCN2C(=O)c3ccc4c5c(ccc(c35)C2=O)C(=O)N(CCCNCCCCNCCCN)C4=O)c(OC)c1OC | 21.5 µM | 18 µM | 6.57 µM | 1.62 µM | 6.13 µM | 2.44 µM | 0.335 µM | 1.88 µM | 0.355 µM | 1.17 µM
26 | CC(=O)OC1C(O)COC(Oc2c(C)c3c4c(c2O)[C@@H](C)CC[C@@H]4[C@@H](C)C[C@H]3C=C(C)C)C1O (some centres not stated) | – | – | 67.4 µM | > 100 µM | – | – | 39.4 µM | > 100 µM | 17.2 µM | 24 µM
27 | COc1cccc2c1C(=O)c1c(O)c3c(c(O)c1C2=O)C[C@@](O)(C(=O)COC(=O)c1cccnc1)C[C@@H]3OC1CC(N)C(O)C(C)O1 (some centres not stated) | 1.02 µM | 1.96 µM | 1 µM | 2.08 µM | 0.193 µM | 0.327 µM | 0.0982 µM | 2.64 µM | 0.033 µM | 0.217 µM
28 | CCc1nc2cc(/C=C/C(=O)NO)c(F)cc2c(=O)n1CCc1ccccc1 | 13.4 µM | 7.97 µM | 10.2 µM | 15.1 µM | 2.32 µM | 0.668 µM | 0.29 µM | 4.95 µM | 0.407 µM | 1.2 µM
29 | Nc1nc(N)c2ncn(Cc3c(Cl)cccc3Cl)c2n1 | > 100 µM | > 100 µM | > 100 µM | > 100 µM | – | – | – | > 100 µM | – | –
30 | Cc1occc1C(=S)Nc1ccc(Cl)c(C(=O)OCC2CC2)c1 | 81.5 µM | > 100 µM | > 100 µM | > 100 µM | – | – | – | > 100 µM | – | –
31 | CC(C)C(OC(=O)c1cc(NC(=S)c2ccccc2)ccc1Cl)C(C)C | 91.1 µM | 57.4 µM | > 100 µM | > 100 µM | – | – | – | 29.5 µM | – | –
32 | COc1cc2c(C#N)n3c(c2cc1OC)C(=O)C(c1ccccc1)Oc1ccccc1-3 (configuration not stated) | 5.54 µM | 68.6 µM | – | – | 1.97 µM | 4.05 µM | – | – | – | –
33 | COc1cc2c3c(n(CCCn4cccn4)c(=O)c2cc1OC)-c1cc2c(cc1C3=O)OCO2 | > 70 µM | 35.5 µM | 39.2 µM | > 55.2 µM | 3.4 µM | 8.65 µM | 2.2 µM | > 100 µM | 0.523 µM | 6.23 µM
34 | CCCN(CCC)c1ccc(C=O)c(OC)c1 | 80.2 µM | – | 78.9 µM | 81.3 µM | 22 µM | – | 12.5 µM | 57.5 µM | 19.1 µM | 20 µM
35 | N#C/C(=C/c1cccs1)c1cccs1 | – | > 100 µM | > 100 µM | > 100 µM | – | > 100 µM | 51.5 µM | > 100 µM | > 100 µM | > 100 µM
